Measurements published in patent US5242926A, “Therapeutic composition for treating hyperthyroidism” (priority 1992, dated 1993).
Entries after “also recorded” stand apart in the source; their conditions may differ.

Legend:
[1] = tested on: rat thyroid, pituitary and suprarenal gland; assay: Effect of THP on rat thyroid, pituitary and suprarenal gland weight (Experiment 6); type: in vivo, rats (Sprague-Dawley); conditions: PTU, 14 days
[2] = tested on: hyperthyroidism in rats (TSH, T3, T4, free T3 and free T4 in the serum); assay: Serum TSH, T3, T4, FT3, FT4 by RIA, L-T4 induced hyperthyroidism rats (Experiment 2); type: in vivo, female Sprague-Dawley rats
Method: The female Sprague-Dawley rats each having a weight of 250±10 grams are subcutaneously injected (S.C.) for 12 days with a daily dose of 300 μg/kg for each rat to induce hyperthyroidism. […] Then, the rat abdominal cavity is cut to extract arterial blood which is settled for 2 hours at room temperature and is centrifuged at 2500 rpm for 10 minutes for separating the serum.
The concentrations of TSH, T3, T4, free T3 and free T4 in the serum by RIA methods.

[3] = tested on: TSH, T3, T4, FT3 and FT4 in bloods; assay: Effect of PBT and THP on serum TSH, T3, T4, FT3, FT4, normal rats (Experiment 3); type: in vivo, female Sprague-Dawley rats
Method: The female Sprague-Dawley rats, each weights 270±15 grams, are divided into 5 groups of 6 rats, for following daily treatment for continuous 10 days, except a normal group for control.
On the eleventh days, each rat is injected (I.P.) with pentobarbital 50 mg/kg and narcotized for extracting arterial blood which is settled for 2 hours at room temperature and centrifuged at 2500 rpm for 10 minutes to separate the serum. The concentrations of TSH, T3, T4, FT3 and FT4 in bloods are analyzed by RIA methods. The normal control group is treated with saline and analyzed by the same methods.

rat thyroid = assay: Effect of each extracted layer of Corydalis on rat thyroid: body and thyroid weight, normal rats (Experiment 1); conditions: 50 mg/kg daily p.o., 14 days, vs control
Method: ICR mice may be used as testing animals in this invention, each having a weight of 18-25 grams. Sprague-Dawley rats each having a weight of 240±10 grams may also be used in this invention.
The mice or rats are placed in a metal cage by feeding 5 mice per group in each cage with solid foods and distilled water at least 1 week before performing the experiment at […] and humidity of 55±5%.
(§1) On the 15th day, each rat is intraperitoneally injected with pentobarbital 50 mg/kg and narcotized. The rat abdominal cavity is cut to take the thyroid out for weighing and for examining pathological section, which is stained with H-E stain to facilitate observation of pathologic changes.

thyroid follicle cells = assay: Thyroid pathological section, H-E stain, normal rats (Experiment 1); type: in vivo, female Sprague-Dawley rats; conditions: 50 mg/kg daily p.o., 14 days
[4] = tested on: hyperthyroidism in rats (TSH, T3, T4, FT3 and FT4 in the bloods); assay: Effect of PBT and THP on serum TSH, T3, T4, FT3, FT4, L-T4 induced hyperthyroidism rats (Experiment 3); type: in vivo, female Sprague-Dawley rats
Method: (§2) The female Sprague-Dawley rats, each weighs 260±15 grams, are divided into 5 groups of 6 rats, each rat being subcutaneously injected (s.c.) with L-T4 300 μg/kg daily for continuous 12 days to induce hyperthyroidism in each rats. […] The control group is treted with saline. After continuous treatment of 10 days as described above, each rat is injected (I.P.) with pentobarbitol 50 mg/kg and narcotized on the eleventh day, and then extracted the arterial blood for measuring concentrations of TSH, T3, T4, FT3 and FT4 in the bloods.

[5] = tested on: thyroid function of normal rats; assay: Effect of dl-tetrahydropalmatine (THP) on thyroid function of normal rats (Experiment 4)
Method: as §1
The method of experiment 1 is repeated by daily treating dl-tetrahydropalmatine (THP) 2.5 mg/kg, 5.0 mg/kg and 10 mg/kg (I.P.) respectively for continuous 14 days.

[6] = tested on: blood cholesterol and triglyceride in rats; assay: Effects of THP on blood cholesterol, triglyceride and T4 in L-T4 induced hyperthyroidism rats (Experiment 5); type: in vivo, rats (Sprague-Dawley); conditions: 10 days
[7] = tested on: blood cholesterol and triglyceride in rats; assay: as above; type: in vivo, rats (Sprague-Dawley); conditions: 10 days; remark: listed apart in the source
Method: as §2

[8] = L-T4 induced hyperthyroidism rats, PTU 5 mg/kg p.o., 10 days
[9] = hyperthyroidism rats, PTU 5.0 mg/kg
[10] = THP 50 mg/kg [sic], i.p., 10 days
[11] = L-T4 induced hyperthyroidism rats, THP 5 mg/kg i.p., 10 days
[12] = hyperthyroidism rats, THP 5 mg/kg, I.P.
[13] = hyperthyroidism rats, THP 2.5 mg/kg i.p.
[14] = hyperthyroidism rats, THP 5 mg/kg i.p.
[15] = hyperthyroidism rats, THP 10.0 mg/kg i.p.

In the case of `CCCc1cc(=O)[nH]c(=S)[nH]1` [PTU, propylthiouracil], the “effect on follicle cells and colloid (in words)” value [1] is reported as “expansion of follicle cells and colloidal loss”, the “effect on thyroid weight (in words)” value [1] is reported as “increase of thyroid weight” and the “effect on T3, T4, FT3 and FT4 (in words)” value ([2]; PTU 5 mg/kg) is reported as “may remarkably reduce the concentrations of T3 (P <0.001), T4 (P<0.001), FT3 (P<0.01) and FT4 (P<0.001)”. The “effect on TSH (in words)” value ([2]; PTU 5 mg/kg) was “remarkably increase TSH (P<0.01)”, the FT3 ([2]; PTU 5 mg/kg p.o.) was 0.44 ± 0.02 ng/dL and the FT4 ([2]; PTU 5 mg/kg p.o.) was 0.47 ± 0.04 ng/dL. The T3 ([2]; PTU 5 mg/kg p.o.) was 17.92 ± 1.43 ng/dL, the T4 ([2]; PTU 5 mg/kg p.o.) was 1.11 ± 0.02 µg/dL and the TSH ([2]; PTU 5 mg/kg p.o.) was 3.98 ± 0.40 µg/mL. For the same molecule, the “effect on T3, T4, FT3 and FT4 (in words)” value ([3]; PTU 5 mg/kg P.O.) was “will remarkably reduce T3 (P<0.001), T4 (P<0.001), FT3 (P<0.001) and FT4 (P<0.001)”, the “TSH” value ([3]; PTU 5 mg/kg P.O., increase from 2.28±0.16 μu/ml, P<0.001) was 4.54±0.01 μm/ml and the FT3 ([3]; PTU 5 mg/kg p.o., 10 days) was 0.37 ± 0.10 ng/dL. For the same molecule, the FT4 ([3]; PTU 5 mg/kg p.o., 10 days) was 0.35 ± 0.09 ng/dL, the T3 ([3]; PTU 5 mg/kg p.o., 10 days) was 31.77 ± 3.10 µg/dL and the T4 ([3]; PTU 5 mg/kg p.o., 10 days) was 0.92 ± 0.14 µg/dL. The TSH ([3]; PTU 5 mg/kg p.o., 10 days) was 4.54 ± 0.41 μu/ml, the “changes in thyroid weight (in words)” value (rat thyroid) was “clearly shows an increase thyroid weight (P<0.001); also recorded: may increase thyroid weight” and the “pathologic section of the thyroid (in words)” value (thyroid follicle cells) was “remarkable expansion of the thyroid follicle cells and their colloidal loss; also recorded: will cause the formation of follicle cells, and loss of colloid”. It also gave an FT3 [4, 8] of 2.01 ± 0.25 ng/dL, an FT4 [4, 8] of 3.24 ± 0.98 ng/dL and a T3 [4, 8] of 30.25 ± 3.25 ng/dL. For the same molecule, the T4 [4, 8] was 1.95 ± 0.25 µg/dL, the TSH [4, 8] was 3.98 ± 0.51 μu/ml and the “effect on T3, T4, FT3 and FT4 (in words)” value ([4]; hyperthyroidism rats, PTU 5 mg/kg, P.O.) was “may decrease the T3 (P<0.001), T4 (P<0.001), FT3 (P<0.001) and FT4 (P<0.001)”. The “TSH” value ([4]; hyperthyroidism rats, PTU 5 mg/kg, P.O., increase from 0.99±0.11, P<0.001) was 3.98 ± 0.51 µg/mL, the “effect on T3, T4, FT3 and FT4 (in words)” value ([5]; PTU) was “reduces the T3, T4, FT3 and FT4” and the “effect on TSH (in words)” value ([5]; PTU) was “increases the TSH concentration”. For the same molecule, the “effect on thyroid follicle cells and colloid (in words)” value ([5]; PTU) was “expand thyroid follicle cells and cause colloidal loss”, the FT3 ([5]; PTU 5.0 mg/kg) was 0.4 ± 0.1 ng/dL and the FT4 ([5]; PTU 5.0 mg/kg) was 0.4 ± 0.1 ng/dL. The T3 ([5]; PTU 5.0 mg/kg) was 31.8 ± 3.1 ng/dL, the T4 ([5]; PTU 5.0 mg/kg) was 0.9 ± 0.1 µg/dL and the TSH ([5]; PTU 5.0 mg/kg) was 4.5 ± 0.4 μu/ml. For the same molecule, the Cholesterol [6, 9] was 73.9 ± 3.2 mg/dL, the T4 [6, 9] was 1.2 ± 0.2 µg/dL and the Triglyceride [6, 9] was 35.6 ± 3.2 mg/dL.
`COc1cc2c(cc1OC)C1Cc3ccc(OC)c(OC)c3CN1CC2` (racemic) [THP, dl-tetrahydropalmatine] was tested, and the FT3 [3, 10] was 1.18 ± 0.01 ng/dL, the FT4 [3, 10] was 1.97 ± 0.14 ng/dL and the T3 [3, 10] was 49.05 ± 2.45 µg/dL. It also gave a T4 [3, 10] of 2.32 ± 0.25 µg/dL, a TSH [3, 10] of 1.89 ± 0.13 μu/ml and an FT3 [4, 11] of 1.42 ± 0.62 ng/dL. The FT4 [4, 11] was 5.27 ± 1.05 ng/dL, the T3 [4, 11] was 42.36 ± 4.25 ng/dL and the T4 [4, 11] was 4.91 ± 0.17 µg/dL. For the same molecule, the TSH [4, 11] was 0.77 ± 0.10 μu/ml, the “effect on T3, T4, FT3 and FT4 (in words, summary)” value ([4]; hyperthyroidism rats) was “may markedly decrease the concentration of T3, T4, FT3 and FT4” and the “effect on TSH (in words, summary)” value ([4]; hyperthyroidism rats) was “will not influence the TSH concentration in the blood”. The “effect on T3, T4, FT3 and FT4 (in words)” value [4, 12] was “will greatly reduce T3 (P<0.01), T4 (P<0.05), FT3 (P<0.01) and FT4 (P<0.01)”, the “effect on TSH (in words)” value [4, 12] was “no remarkable influence on TSH concentration” and the “pharmacological effect relative to PBT (in words)” value ([4]; hyperthyroidism rats, THP dosage much smaller than PBT dose) was “not less than that of the PBT”. For the same molecule, the FT3 ([5]; THP 2.5 mg/kg i.p., 14 days) was 1.3 ± 0.1 ng/dL, the FT4 ([5]; THP 2.5 mg/kg i.p., 14 days) was 1.7 ± 0.5 ng/dL and the T3 ([5]; THP 2.5 mg/kg i.p., 14 days) was 56.8 ± 3.1 ng/dL. It also gave a T4 ([5]; THP 2.5 mg/kg i.p., 14 days) of 2.3 ± 0.5 µg/dL, a TSH ([5]; THP 2.5 mg/kg i.p., 14 days) of 1.9 ± 0.1 μu/ml and an FT3 ([5]; THP 5.0 mg/kg i.p., 14 days) of 1.2 ± 0.2 ng/dL. The FT4 ([5]; THP 5.0 mg/kg i.p., 14 days) was 2.1 ± 0.2 ng/dL, the T3 ([5]; THP 5.0 mg/kg i.p., 14 days) was 58.8 ± 3.7 ng/dL and the T4 ([5]; THP 5.0 mg/kg i.p., 14 days) was 2.5 ± 0.2 µg/dL. The TSH ([5]; THP 5.0 mg/kg i.p., 14 days) was 2.5 ± 0.4 μu/ml, the FT4 ([5]; THP 10.0 mg/kg i.p., 14 days) was 1.9 ± 1.5 ng/dL and the T3 ([5]; THP 10.0 mg/kg i.p., 14 days) was 49.1 ± 2.5 ng/dL. For the same molecule, the T4 ([5]; THP 10.0 mg/kg i.p., 14 days) was 2.3 ± 0.3 µg/dL, the TSH ([5]; THP 10.0 mg/kg i.p., 14 days) was 1.9 ± 0.1 μu/ml and the “effect on T3, T4, FT3, FT4 and TSH (in words)” value ([5]; THP 2.5, 5.0 and 10 mg/kg i.p., 14 days) was “no influence on the concentrations of T3, T4, FT3, FT4 and TSH”. For the same molecule, the T4 ([7]; THP 2.5 mg/kg i.p.) was 3.3 ± 0.4 µg/dL, the T4 ([7]; THP 5 mg/kg i.p.) was 3.1 ± 0.5 µg/dL and the T4 ([7]; THP 10.0 mg/kg i.p.) was 3.2 ± 0.5 µg/dL. For the same molecule, the “effect on cholesterol compared with PTU (in words)” value ([6]; THP i.p.) was “increases the cholesterol by a much smaller amount than PTU”, the Cholesterol [6, 13] was 57.5 ± 3.5 mg/dL and the Triglyceride [6, 13] was 29.5 ± 3.5 mg/dL. It also gave a Cholesterol [6, 14] of 58.5 ± 3.4 mg/dL, a Triglyceride [6, 14] of 31.1 ± 5.4 mg/dL and a Cholesterol [6, 15] of 56.5 ± 4.6 mg/dL. The Triglyceride [6, 15] was 30.6 ± 5.1 mg/dL and the “effect on triglyceride compared with PTU (in words)” value ([6]; hyperthyroidism rats, THP i.p.) was “may reduce the triglyceride of the hyperthyroidism rats to be superior to PTU”.
